38 molecules from US20260297109A1, “COMPOUNDS AS SUMO ACTIVATING ENZYME INHIBITORS” (WIGEN BIOMEDICINE TECHNOLOGY (SHANGHAI) CO., LTD., priority 2022, published 2026) can be followed below.

The assay addresses T1, SAE (Homo sapiens, UniProt Q9UBT2).
T1 construct: endogenous in cells; host or cells: HCT116
T1 sequence (Q9UBT2 1-640): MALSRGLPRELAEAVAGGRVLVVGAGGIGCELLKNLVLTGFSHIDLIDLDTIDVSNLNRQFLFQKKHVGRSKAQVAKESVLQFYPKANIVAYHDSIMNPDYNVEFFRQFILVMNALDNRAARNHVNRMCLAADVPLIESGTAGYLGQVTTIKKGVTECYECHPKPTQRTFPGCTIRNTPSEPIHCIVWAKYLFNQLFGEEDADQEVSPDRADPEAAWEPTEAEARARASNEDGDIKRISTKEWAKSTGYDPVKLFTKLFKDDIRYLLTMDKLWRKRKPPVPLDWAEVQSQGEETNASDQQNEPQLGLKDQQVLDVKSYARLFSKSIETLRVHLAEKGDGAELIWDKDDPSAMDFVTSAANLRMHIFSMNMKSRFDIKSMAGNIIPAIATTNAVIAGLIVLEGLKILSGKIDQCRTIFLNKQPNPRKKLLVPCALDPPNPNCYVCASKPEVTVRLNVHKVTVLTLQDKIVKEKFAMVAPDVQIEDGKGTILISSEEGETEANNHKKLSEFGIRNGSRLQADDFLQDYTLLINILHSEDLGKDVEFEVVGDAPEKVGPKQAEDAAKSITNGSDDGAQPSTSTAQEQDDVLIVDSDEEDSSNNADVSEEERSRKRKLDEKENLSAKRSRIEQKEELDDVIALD
T1 sequence (Q9UBE0 1-346): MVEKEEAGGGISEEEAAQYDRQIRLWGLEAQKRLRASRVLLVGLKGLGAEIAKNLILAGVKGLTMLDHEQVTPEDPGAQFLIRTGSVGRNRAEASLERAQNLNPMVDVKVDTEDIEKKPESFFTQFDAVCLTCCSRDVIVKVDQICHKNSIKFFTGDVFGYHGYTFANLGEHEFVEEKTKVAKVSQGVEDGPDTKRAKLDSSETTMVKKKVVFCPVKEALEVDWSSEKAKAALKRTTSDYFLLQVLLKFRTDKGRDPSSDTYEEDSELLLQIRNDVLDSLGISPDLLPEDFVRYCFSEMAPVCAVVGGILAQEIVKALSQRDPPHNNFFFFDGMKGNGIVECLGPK
Kind of assay: SUMO IF: in vitro inhibitory activity assay against SAE in HCT116 cells (SUMO-2/3 immunofluorescence). The class given is cell-based. Conditions: 6 h at 37° C. The procedure: Biological Example 1. In Vitro Inhibitory Activity Assay of Compounds of the Present Disclosure Against SAE
HCT116 cells were seeded into a 96-well black transparent bottom plate at about 20000/well with 90 μL per well. The cells were incubated at 37° C. overnight for 24 h. The test compounds were 10-fold diluted to give a final concentration, and 10 μL of the diluted compounds was added to each well of the cell culture plate. The mixture was incubated at 37° C. for 6 h. The cells were then washed gently, the culture medium was discarded, and the cells were washed once with 200 μL of 0.1% PBST. 50 μL of 4% PFA was added to each well, and the cells were immobilized at room temperature for 20 min, and then washed with PBS 2-3 times. 50 μL of 0.2% Triton X-100 was added to each well, and the cells were left to stand at room temperature for 15 min and washed with 0.1% PBST 3 times. 100 μL of 3% BSA (0.6 g BSA+20 mL PBS) was added to each well, and the mixture was blocked at 37° C. for 30 min. After the blocking was completed, the liquid was removed and a primary antibody (SUMO-2/3 (18H8) Rabbit mAb, 1:400 dilution) was prepared with 1% BSA. 30 μL of the diluted primary antibody was added to each well, and the mixture was incubated at 4° C. overnight. The cells were washed 3 times with 200 μL of 0.1% PBST. A FITC secondary antibody (Fluorescein (FITC)-conjugated Affinipure Goat Anti-Rabbit IgG (H+L), 1:300 dilution) was further prepared with 1% BSA, and 40 μL of the diluted secondary antibody was added to each well. The mixture was incubated at room temperature in the dark for 2 h, and then the cells were washed 4 times with 0.1% PBST. The fluorescence signal of the sample was detected and compared to the DMSO group, and the inhibition rate and IC50 were calculated.

Bounds are passed on as bounds.

Take `NS(=O)(=O)OC[C@H]1[C@H](F)[C@@H](Nc2ncncc2C(=O)c2cc3c(s2)COC32NCCc3ccc(Cl)cc32)C[C@@H]1O` (some centres unmarked) [Compound 164]: the IC50 (as a rule, the point on the concentration scale where inhibition reaches its midpoint) (class symbols) was 50 to 200 nM.

Under “class symbols”, `NS(=O)(=O)OC[C@H]1[C@H](F)[C@@H](Nc2ncncc2C(=O)c2cc3c(s2)CCC32NCC3(CC3)c3ccc(Cl)cc32)C[C@@H]1O` (some centres unmarked) [Compound 165] registered an IC50 of 50 to 200 nM.

Under “class symbols”, `NS(=O)(=O)OC[C@H]1[C@H](F)[C@@H](Nc2ncncc2C(=O)c2cc3c(s2)CCC32NC3(CC3)Cc3ccc(Cl)cc32)C[C@@H]1O` (some centres unmarked) [Compound 166] yielded an IC50 of 50 to 200 nM. Still for that read-out and setting: under `NS(=O)(=O)OC[C@H]1[C@H](F)[C@@H](Nc2ncncc2C(=O)c2cc3c(s2)CCC32NCC(=O)c3ccc(Cl)cc32)C[C@@H]1O` (some centres unmarked) [Compound 167] stands 50 to 200 nM; under `NS(=O)(=O)OC[C@H]1[C@H](F)[C@@H](Nc2ncncc2C(=O)c2cc3c(s2)CCC32OCCc3ccc(Cl)cc32)C[C@@H]1O` (some centres unmarked) [Compound 168], at most 50 nM. Same read-out and setting: under `Cc1sc(C(=O)c2cncnc2N[C@H]2C[C@H](O)[C@@H](COS(N)(=O)=O)[C@@H]2F)cc1C1NCCc2ccccc21` (some centres unmarked) [Compound 229] stands over 200 nM; under `Cc1sc(C(=O)c2cncnc2N[C@H]2C[C@H](O)[C@@H](COS(N)(=O)=O)[C@@H]2F)cc1[C@@H]1NCCc2ccccc21` [Compound 230], 50 to 200 nM. For `Cc1sc(C(=O)c2cncnc2N[C@H]2C[C@H](O)[C@@H](COS(N)(=O)=O)[C@@H]2F)cc1[C@H]1NCCc2ccccc21` [Compound 231], for the setting “class symbols”, the IC50 was over 200 nM. Where the note is “numeric values”, `Cc1sc(C(=O)c2cncnc2N[C@H]2C[C@H](O)[C@@H](COS(N)(=O)=O)[C@@H]2F)cc1[C@H]1NCCc2ccc(Cl)cc21` [Compound 234] yielded an IC50 of over 1000 nM.

In the case of `Cc1sc(C(=O)c2cncnc2N[C@H]2C[C@H](O)[C@@H](COS(N)(=O)=O)[C@@H]2F)cc1C1NCCc2ccc(F)cc21` (some centres unmarked) [Compound 235], for the setting “class symbols”, the IC50 is over 200 nM. For the setting “numeric values”, `Cc1sc(C(=O)c2cncnc2N[C@H]2C[C@H](O)[C@@H](COS(N)(=O)=O)[C@@H]2F)cc1[C@@H]1NCCc2ccc(F)cc21` [Compound 236] showed an IC50 of 73.1 nM. This counts as double-digit nanomolar.

Molecule `Cc1sc(C(=O)c2cncnc2N[C@H]2C[C@H](O)[C@@H](COS(N)(=O)=O)[C@@H]2F)cc1[C@H]1NCCc2ccc(F)cc21` [Compound 237] registered an IC50 (numeric values) of over 1000 nM.

Regarding `Cc1sc(C(=O)c2cncnc2N[C@H]2C[C@H](O)[C@@H](COS(N)(=O)=O)[C@@H]2F)cc1C1NCCc2ccc(C#N)cc21` (some centres unmarked) [Compound 238], where the note is “class symbols”, the IC50 was over 200 nM.

Regarding `Cc1sc(C(=O)c2cncnc2N[C@H]2C[C@H](O)[C@@H](COS(N)(=O)=O)[C@@H]2F)cc1[C@@H]1NCCc2ccc(C#N)cc21` [Compound 239], the IC50 (class symbols) lay in the range of 50 to 200 nM. `Cc1sc(C(=O)c2cncnc2N[C@H]2C[C@H](O)[C@@H](COS(N)(=O)=O)[C@@H]2F)cc1[C@H]1NCCc2ccc(C#N)cc21` [Compound 240] yielded an IC50 (class symbols) of over 200 nM.

`Cc1ccc2c(c1)C(c1cc(C(=O)c3cncnc3N[C@H]3C[C@H](O)[C@@H](COS(N)(=O)=O)[C@@H]3F)sc1C)NCC2` (some centres unmarked) [Compound 241] returned an IC50 (class symbols) of 50 to 200 nM. Same read-out and setting: under `Cc1sc(C(=O)c2cncnc2N[C@H]2C[C@H](O)[C@@H](COS(N)(=O)=O)[C@@H]2F)cc1C1NCCc2ccc(C3CC3)cc21` (some centres unmarked) [Compound 242] stands 50 to 200 nM; under `COc1ccc2c(c1)C(c1cc(C(=O)c3cncnc3N[C@H]3C[C@H](O)[C@@H](COS(N)(=O)=O)[C@@H]3F)sc1C)NCC2` (some centres unmarked) [Compound 243], over 200 nM; under `Cc1sc(C(=O)c2cncnc2N[C@H]2C[C@H](O)[C@@H](COS(N)(=O)=O)[C@@H]2F)cc1C1NCCc2ccc(C(F)(F)F)cc21` (some centres unmarked) [Compound 244], 50 to 200 nM. Same read-out and setting: with `Cc1sc(C(=O)c2cncnc2N[C@H]2C[C@H](O)[C@@H](COS(N)(=O)=O)[C@@H]2F)cc1C1NCCc2cc(F)c(F)cc21` (some centres unmarked) [Compound 245] the figure was 50 to 200 nM. In turn, `Cc1sc(C(=O)c2cncnc2N[C@H]2C[C@H](O)[C@@H](COS(N)(=O)=O)[C@@H]2F)cc1C1NCCc2cc(F)c(Cl)cc21` (some centres unmarked) [Compound 246] came in with an IC50 (class symbols) of 50 to 200 nM. The same measure, in the same setting: under `Cc1sc(C(=O)c2cncnc2N[C@H]2C[C@H](O)[C@@H](COS(N)(=O)=O)[C@H]2F)cc1C1NCCc2cc(Cl)c(Cl)cc21` (some centres unmarked) [Compound 247] stands 50 to 200 nM; under `Cc1cc2c(cc1Cl)C(c1cc(C(=O)c3cncnc3N[C@H]3C[C@H](O)[C@@H](COS(N)(=O)=O)[C@@H]3F)sc1C)NCC2` (some centres unmarked) [Compound 248], 50 to 200 nM; under `Cc1sc(C(=O)c2cncnc2N[C@H]2C[C@H](O)[C@@H](COS(N)(=O)=O)[C@@H]2F)cc1C1NCCc2cc(C#N)c(Cl)cc21` (some centres unmarked) [Compound 249], 50 to 200 nM. Still for that read-out and setting: with `COc1cc2c(cc1Cl)C(c1cc(C(=O)c3cncnc3N[C@H]3C[C@H](O)[C@@H](COS(N)(=O)=O)[C@@H]3F)sc1C)NCC2` (some centres unmarked) [Compound 250] the figure was 50 to 200 nM; with `Cc1sc(C(=O)c2cncnc2N[C@H]2C[C@H](O)[C@@H](COS(N)(=O)=O)[C@@H]2F)cc1C1NCCc2cc(F)c(Cl)c(F)c21` (some centres unmarked) [Compound 251], 50 to 200 nM; with `Cc1sc(C(=O)c2cncnc2N[C@H]2C[C@H](O)[C@@H](COS(N)(=O)=O)[C@@H]2F)cc1C1NCCc2cc(Cl)c(F)cc21` (some centres unmarked) [Compound 252], 50 to 200 nM. The same measure, in the same setting: with `Cc1sc(C(=O)c2cncnc2N[C@H]2C[C@H](O)[C@@H](COS(N)(=O)=O)[C@@H]2F)cc1C1NCCc2ccncc21` (some centres unmarked) [Compound 253] the figure was 50 to 200 nM; with `Cc1sc(C(=O)c2cncnc2N[C@H]2C[C@H](O)[C@@H](COS(N)(=O)=O)[C@@H]2F)cc1C1NCCc2cc(Cl)ncc21` (some centres unmarked) [Compound 254], 50 to 200 nM; with `Cc1sc(C(=O)c2cncnc2N[C@H]2C[C@H](O)[C@@H](COS(N)(=O)=O)[C@@H]2F)cc1C1NCCc2cnc(Cl)cc21` (some centres unmarked) [Compound 255], 50 to 200 nM.

In turn, `Cc1sc(C(=O)c2cncnc2N[C@H]2C[C@H](O)[C@@H](COS(N)(=O)=O)[C@@H]2F)cc1C1OCc2ccc(Cl)cc21` (some centres unmarked) [Compound 256] gave an IC50 (class symbols) of over 200 nM.

With `Cc1sc(C(=O)c2cncnc2N[C@H]2C[C@H](O)[C@@H](COS(N)(=O)=O)[C@@H]2F)cc1C1NCc2ccc(Cl)cc21` (some centres unmarked) [Compound 257], the IC50 (class symbols) is over 200 nM. Same read-out and setting: under `NS(=O)(=O)OC[C@H]1[C@H](F)[C@@H](Nc2ncncc2C(=O)c2cc(C3NCCc4ccc(Cl)cc43)c(Cl)s2)C[C@@H]1O` (some centres unmarked) [Compound 258] stands 50 to 200 nM. `C#Cc1sc(C(=O)c2cncnc2N[C@H]2C[C@H](O)[C@@H](COS(N)(=O)=O)[C@@H]2F)cc1C1NCCc2ccc(Cl)cc21` (some centres unmarked) [Compound 259] yielded an IC50 (class symbols) of 50 to 200 nM. Same read-out and setting: under `CCc1sc(C(=O)c2cncnc2N[C@H]2C[C@H](O)[C@@H](COS(N)(=O)=O)[C@@H]2F)cc1C1NCCc2ccc(Cl)cc21` (some centres unmarked) [Compound 260] stands 50 to 200 nM. The same measure, in the same setting: with `C=Cc1sc(C(=O)c2cncnc2N[C@H]2C[C@H](O)[C@@H](COS(N)(=O)=O)[C@@H]2F)cc1C1NCCc2ccc(Cl)cc21` (some centres unmarked) [Compound 261] the figure was 50 to 200 nM; with `COc1sc(C(=O)c2cncnc2N[C@H]2C[C@H](O)[C@@H](COS(N)(=O)=O)[C@@H]2F)cc1C1NCCc2ccc(Cl)cc21` (some centres unmarked) [Compound 262], 50 to 200 nM; with `CN(C)c1sc(C(=O)c2cncnc2N[C@H]2C[C@H](O)[C@@H](COS(N)(=O)=O)[C@@H]2F)cc1C1NCCc2ccc(Cl)cc21` (some centres unmarked) [Compound 263], 50 to 200 nM.
